This passage reports Ki results from US7781437B2, “Substituted heterocyclic compounds with CXCR3 antagonist activity” (Schering Corporation, priority 2005, dated 2010).

Where two headings read alike, the source gives them in different places.

The term Ki denotes a measure of affinity in units of concentration, obtained from inhibition or displacement.

The experiment has as its target T1, Human CXCR3 (N-delta 4) (Homo sapiens, UniProt P49682).
T1 construct: CD8 leader (N); Flag tag; expressed in transfected cells; membrane preparation
T1 sequence (P49682 5-368 limits assumed): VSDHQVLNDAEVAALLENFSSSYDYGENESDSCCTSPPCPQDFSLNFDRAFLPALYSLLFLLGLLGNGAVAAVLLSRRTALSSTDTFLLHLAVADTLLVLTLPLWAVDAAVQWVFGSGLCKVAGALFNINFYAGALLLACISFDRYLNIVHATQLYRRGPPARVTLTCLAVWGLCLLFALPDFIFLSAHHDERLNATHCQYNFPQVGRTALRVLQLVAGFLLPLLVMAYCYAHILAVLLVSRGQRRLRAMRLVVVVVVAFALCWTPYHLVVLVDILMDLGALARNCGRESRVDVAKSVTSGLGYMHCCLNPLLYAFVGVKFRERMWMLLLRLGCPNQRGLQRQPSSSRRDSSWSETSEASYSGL
The experiment can be described thus: Human CXCR3 (N-delta 4) Scintillation Proximity Assay (SPA), [125I] IP-10 binding to Ba/F3-hCXCR3 (N-delta 4) membranes. The settings on record: [125I] IP-10 displacement. The text has this:
The inventive compounds can readily be evaluated to determine activity at The CXCR3 receptors by known methods, such as, for example, Development of Human CXCR3 (N-delta 4) Binding Assay.
Cloning and Expression of Human CXCR3 (N-delta 4):
The DNA encoding human CXCR3 was cloned by PCR using human genomic DNA (Promega, Madison, Wis.) as a template. The PCR primers were designed based on the published sequence of human orphan receptor GPR9 (1) with incorporated restriction sites, a Kozak consensus sequence, CD8 leader and Flag tag. The PCR product was subcloned into the mammalian expression vector pME18Sneo, a derivative of the SR-alpha expression vector (designated as pME18Sneo-hCXCR3 (N-delta 4).
IL-3-dependent mouse pro-B cells Ba/F3 were transfected by electroporation in 0.4 ml Dulbecco's PBS containing 4×10^6 cells with 20 μg of pME18Sneo-hCXCR3 (N-delta 4) plasmid DNA. Cells were pulsed at 400 Volts, 100 OHMs, 960 μFd. The transfected cells were under selection with 1 mg/ml G418 (Life Technologies, Gaithersburg, Md.). G418-resistant Ba/F3 clones were screened for CXCR3 expression by specific binding of [^125I] IP-10 (NEN Life Science Products, Boston, Mass.).
Preparation of Ba/F3-hCXCR3 (N-delta 4) membranes:
Ba/F3 cells expressing human CXCR3 (N-delta 4) were pelleted and resuspended in the lysis buffer containing 10 mM HEPES , pH 7.5 and Complete® protease inhibitors (1 tablet per 100 ml) (Boehringer Mannheim, Indianapolis, Ind.) at a cell density of 20×10^6 cells per ml. After 5 minutes incubation on ice, cells were transferred to 4639 cell disruption bomb (Parr Instrument, Moline, Ill.) and applied with 1,500 psi of nitrogen for 30 minutes on ice. Large cellular debris was removed by centrifugation at 1,000×g. Cell membrane in the supernatant was sedimented at 100,000×g. The membrane was resuspended in the lysis buffer supplemented with 10% sucrose and stored at −80° C. Total protein concentration of the membrane was determined by BCA method from Pierce (Rockford, Ill.).
Human CXCR3 (N-delta 4) Scintillation Proximitv Assay (SPA):
For each assay point, 2 μg of membrane was preincubated for 1 hr with 300 μg wheat germ agglutinin (WGA) coated SPA beads (Amersham, Arlington Heights, Ill.) in the binding buffer (50 mM HEPES, 1 mM CaCl2, 5 mM MgCl2, 125 mM NaCI, 0.002% NaN3, 1.0% BSA) at room temperature. The beads were spun down, washed once, resuspended in the binding buffer and transferred to a 96-well Isoplate (Wallac, Gaithersburg, Md.). 25 pM of [^125I] IP-10 with tested compounds in a series of titration were added to start the reaction. After 3 hr reaction at room temperature, the amount of [^125I] IP-10 bound to the SPA beads was determined with a Wallac 1450 Microbeta counter.
The Ki values for the various example compounds of the present invention are given in the afore-mentioned Table 1. From these values, it would be apparent to the skilled artisan that the compounds of the invention have excellent utility CXCR3 antagonists.
A general note: SPA uses beads or plates that emit light when radiolabelled molecules are held near them.

Where [1] appears, read: specific Ki values (Table 2), read-out: Ki.

Take `CC[C@H]1CN(c2c(Cl)nc(-c3nnc(N)o3)c(=O)n2C)CCN1C1CCN(Cc2ccc(Cl)cc2)CC1` [Compound Number 1]: the Ki reads like this: (read-out: Ki rating) under 25 nM; under setting [1], 1.9 nM. For `CCNc1nnc(-c2nc(C)c(N3CCN(C4CCN(C(=O)c5ccc(Cl)nc5N)CC4)[C@@H](CC)C3)n(C)c2=O)o1` [Compound Number 2], in that order: under 25 nM and 2.6 nM. The corresponding values for `CC[C@H]1CN(c2c(Cl)nc(-c3nnc(N)o3)c(=O)n2C)CCN1C1CCN(C(=O)c2ccc(Cl)nc2N)CC1` [Compound Number 3] are under 25 nM and 7.5 nM. For the molecule `CC[C@H]1CN(c2c(Cl)nc(C(N)=O)c(=O)n2C)CCN1C1CCN(Cc2ccc(Cl)cc2F)CC1` [Compound Number 4], the Ki runs as follows: (read-out: Ki rating) under 25 nM; under setting [1], 8.3 nM. The corresponding values for `CC[C@H]1CN(c2c(Cl)nc(-c3nnc(N)o3)c(=O)n2C)CCN1C1CCN(Cc2ccc(Cl)nc2)CC1` [Compound Number 5] are under 25 nM and 1.9 nM. Turning to `CC[C@H]1CN(c2c(Cl)nc(-c3nnc(N)o3)c(=O)n2C)CCN1C1CCN(C(=O)c2ccc(Cl)cc2)CC1` [Compound Number 6], the Ki (read-out: Ki rating) lay in the range of 25 to 100 nM. On the same count and under the same terms, the figure for `CC[C@H]1CN(c2c(C)nc(C(N)=O)c(=O)n2C)CCN1C1CCN(Cc2ccc(Cl)cc2F)CC1` [Compound Number 7] is 25 to 100 nM; for `CC[C@H]1CN(c2c(Cl)nc(C(=O)OC)c(=O)n2C)CCN1C1CCN(Cc2ccc(Cl)cc2F)CC1` [Compound Number 8] it is 25 to 100 nM; for `CC[C@H]1CN(c2c(Cl)nc(-c3nnc(N)o3)c(=O)n2C)CCN1C1CCN(Cc2cc(F)c(Cl)cc2F)CC1` [Compound Number 9] it is 25 to 100 nM. Still for that read-out and setting: in the case of `CC[C@H]1CN(c2c(Cl)nc(C(N)=O)c(=O)n2C)CCN1C1CCN(Cc2ccc(Cl)nc2N)CC1` [Compound Number 10] it was 25 to 100 nM; in that of `CC[C@H]1CN(c2c(Cl)nc(-c3nnc(N)o3)c(=O)n2C)CCN1C1CCN(Cc2cc(F)c(F)cc2Cl)CC1` [Compound Number 11], 25 to 100 nM.

As to `CC[C@H]1CN(c2cnc(C(N)=O)c(=O)n2C)CCN1C1CCN(Cc2ccc(Cl)nc2N)CC1` [Compound Number 12], under “read-out: Ki rating”, the inhibitory constant (Ki) is over 100 nM. Same read-out and setting: in the case of `CC[C@H]1CN(c2nc(O)c(-c3nnc(N)o3)nc2Cl)CCN1C1CCN(Cc2ccc(Cl)cc2)CC1` [Compound Number 13] it was over 100 nM.
